Measured values: patent US11945812B2, “Annulated 2-amino-3-cyano thiophenes and derivatives for the treatment of cancer” (Boehringer Ingelheim International GmbH, priority 2020, dated 2024)

Experiments:
[1] = target: T1, KRAS G12C::SOS1 protein-protein interaction (Homo sapiens, UniProt P01116, C118S/C51S/C80L/G12C); test: KRAS::SOS1 AlphaScreen binding assay; settings: KRAS G12C::SOS1 AlphaScreen
T1 construct: His6 (N); host or cells: E. coli
Text: KRAS::SOS1 AlphaScreen Binding Assay
Reagents: • GST-tagged SOS1 (564_1049_GST_TEV_ECO) produced in-house • GST-TEV-SOS1 (564-1049) is purchased from Viva Biotech Ltd. • The expression construct of KRAS G12C (amino acids 1-169 of reference sequence P01116-2 (uniprot), with additional mutations: C51S, C80L, and C118S) containing a C-terminal avi-tag was obtained by gene synthesis (GeneArt, Thermo Fisher) in donor vector (pDONR-221) and transferred by recombinant cloning into pDEST17 vector bearing an N-terminal His6-tag. The protein was expressed in E. coli and the purified protein was biotinylated with the E. coli biotin ligase (BirA) before usage. • GDP (Sigma Cat No G7127) • AlphaLISA Glutathione Acceptor Beads (PerkinElmer, Cat No AL109) • AlphaScreen Streptavidin Donor Beads (PerkinElmer Cat No 6760002) • Assay plates: Proxiplate-384 PLUS, white (PerkinElmer, Cat No 6008289)
Assay Buffer: • 1×PBS • 0.1% BSA • 0.05% Tween 20
7.5 nM (final assay concentration) KRAS G12C, 10 μM (final assay concentration) GDP and 5 nM (final assay concentration) GST-SOS1 are mixed in assay buffer prior to use and kept at room temperature.
AlphaLISA Glutathione Acceptor Beads and AlphaScreen Streptavidin Donor Beads are mixed in assay buffer at a concentration of 10 μg/mL (final assay concentration) each prior to use and kept at room temperature.
Compounds are diluted to a final start concentration of 100 μM and are tested in duplicate. Assay-ready plates (ARPs) are generated using an Access Labcyte Workstation with a Labcyte Echo 550 or 555 accoustic dispenser. For compound a start concentration of 100 μM, 150 nL of compound solution is transferred per well in 11 concentrations in duplicate with serial 1:5 dilutions.
The assay is run using a fully automated robotic system in a darkened room below 100 Lux. 10 μL of KRAS::SOS1 GDP mix is added into columns 1-24 to the 150 nL of compound solution (final dilution in the assay 1:100, final DMSO concentration 1%).
After 30 minutes incubation time 5 μL of bead mix is added into columns 1-23. Plates are kept at room temperature in a darkened incubator. After further 60 minutes incubation, the signal is measured using a PerkinElmer Envision HTS Multilabel Reader using the AlphaScreen specifications from PerkinElmer. Each plate contains the following controls: • diluted DMSO+KRAS::SOS1 GDP mix+bead mix • diluted DMSO+KRAS::SOS1 GDP mix
IC50 values are calculated and analyzed using a 4 parametric logistic model.
Tables of example compounds disclosed herein contain IC50 values determined using the above assay.

[2] = Plasma protein binding (equilibrium dialysis), serum 10% FCS in PBS; type: in vitro ADME; settings: bovine, 10% FCS in PBS (serum), read-out: PPB 10% FCS fu
Method: (§1) Plasma Protein Binding (PPB)
(§2) Binding of test compound to plasma was determined using equilibrium dialysis (ED) and quantitative mass spectrometry interfaced with liquid chromatography (LC-MS). In brief, ED was performed with dialysis devices consisting of two chambers separated by a semipermeable membrane with a molecular weight cut-off of 5-10 kg/mol. One chamber was filled with commercially sourced plasma (mouse and human plasma, respectively) or serum (10% FCS in PBS) containing 1-10 μmol/L test compound and the other chamber was filled with phosphate-buffer saline (PBS) with or without dextran. The dialysis chamber was incubated for 3-5 hours at 37° C. After incubation, protein was precipitated from aliquots of each chamber and the concentration of test compound in the supernatant of the plasma-containing compartment (cplasma) and of the buffer-containing compartment (Cbuffer) was determined by LC-MS. The fraction of unbound test compound (not bound to plasma) (fu) was calculated according to the following equation: […]

[3] = test system: SW837 cells; test: SW837 CTG proliferation assay (CRC); type: cell-based; settings: Homo sapiens; SW837 CTG proliferation; read-out: IC50 SW837
Method: SW837 CTG Proliferation Assay (CRC)
SW837 cells (ATCC #CCL-235) were grown in cell culture flasks (175 cm^2) using L-15 10% FCS, 1% L-Glu, 1×NEAA and 1×Na-Pyrovat. Cultures were incubated at 37° C. and 0% CO2 in a humidified atmosphere, with medium change or subcultivation 2-3 times a week. Materials used for the assay were CulturPlate-384, White Opaque 384-well Microplate, Sterile and Tissue Culture Treated (Perkin Elmer #6007680), Leibovitz L15 Medium and FBS # SH30071.03 (HyClone).
The proliferation assays started (day1) with seeding cells in flat bottom 384 well microtiter plates in 90 μL L-15 10% FCS, 1% L-Glu, 1×NEAA and 1× Na-Pyrovat at a density of 500 cells/well. Any other luminescence compatible plate format is possible. On day 2, 10 μL dilutions of the test compounds covering a concentration range between app. 0, 1 and 10.000 nM were added to the cells. Cells were incubated for 5 days in a humidified, CO2 controlled (no CO2) incubator at 37° C. On day 7 100 μL of Cell Titer Glow reagent (Cell titer Glo Luminescent Cat. No. G7571, Promega) were added to each well and incubated for additional 10 min at room temperature (with agitation). Luminescence was measured on a Wallac Victor using standard luminescence read out. IC50 values were calculated using standard Levenburg Marquard algorithms (GraphPad Prism).

[4] = Plasma protein binding (equilibrium dialysis), human plasma; type: in vitro ADME; settings: read-out: PPB human fu
Method: as §1, §2

[5] = Plasma protein binding (equilibrium dialysis), mouse plasma; type: in vitro ADME; settings: read-out: PPB mouse fu
Method: as §1, §2

T1 sequence (P01116 1-169 isoform P01116-2 G12C/C51S/C80L/C118S): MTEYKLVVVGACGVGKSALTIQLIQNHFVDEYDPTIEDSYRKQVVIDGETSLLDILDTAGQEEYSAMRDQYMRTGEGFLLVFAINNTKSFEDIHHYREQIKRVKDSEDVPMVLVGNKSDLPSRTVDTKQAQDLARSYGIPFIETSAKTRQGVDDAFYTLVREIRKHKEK

IC50 [1] [nM] | fraction unbound [2] | IC50 [3] [nM] | fraction unbound [4] | fraction unbound [5] | Compound
1.6 | 0.075 | 0.67 | 0.032 | 0.011 | C=CC(=O)N1CCN(c2cc(O[C@@H](C)[C@@H]3CCCN3C)nc(-c3cc([C@@]4(C)CCCc5sc(N)c(C#N)c54)on3)n2)[C@H](C)C1 [Ib-1]
1.6 | 0.055 | 0.69 | 0.021 | 0.007 | C=CC(=O)N1[C@@H](C)CN(c2cc(O[C@@H](C)[C@@H]3CCCN3C)nc(-c3cc([C@@]4(C)CCCc5sc(N)c(C#N)c54)on3)n2)C[C@@H]1C [Ib-4]
3 | 0.058 | 15.8 | 0.019 | 0.004 | C=CC(=O)N1CCN(c2cc(O[C@@H](C)[C@@H]3CCCN3C)nc(-c3cc([C@@]4(C)CCCc5sc(N)c(C#N)c54)on3)n2)CC12CC2 [Ib-5]
3 | 0.167 | < 1 | 0.059 | 0.014 | C=CC(=O)N1CCN(c2cc(O[C@@H](C)[C@@H]3CCCN3C)nc(-c3cc(C4(C)CCCc5sc(N)c(C#N)c54)on3)n2)CC1 (stereo partly drawn) [Ib-6]
13 | 0.063 | 14.9 | 0.013 | 0.005 | C=C(F)C(=O)N1CCN(c2cc(O[C@@H](C)[C@@H]3CCCN3C)nc(-c3cc([C@@]4(C)CCCc5sc(N)c(C#N)c54)on3)n2)[C@H](C)C1 [Ib-10]
1.6 | 0.476 | 0.2 |  | 0.021 | C=CC(=O)N1CCN(c2cc(O[C@@H](C)[C@@H]3CCCN3C)nc(-c3cc([C@@]4(C)CCCc5sc(N)c(C#N)c54)sn3)n2)CC1 [Id-1]

Further lines, the compound ahead of its results:

Compound | IC50 [1] [nM] | fraction unbound [2] | IC50 [3] [nM] | fraction unbound [4] | fraction unbound [5]
C=C(F)C(=O)N1[C@@H](C)CN(c2cc(O[C@@H](C)[C@@H]3CCCN3C)nc(-c3cc([C@@]4(C)CCCc5sc(N)c(C#N)c54)on3)n2)C[C@@H]1C [Ib-11] | 15 | 0.045 | 5.63 |  | 0.003
COC/C=C/C(=O)N1CCN(c2cc(O[C@@H](C)[C@@H]3CCCN3C)nc(-c3cc([C@@]4(C)CCCc5sc(N)c(C#N)c54)on3)n2)[C@H](C)C1 [Ib-14] | 6 | 0.066 | 11.3 | 0.016 | 0.01
C=CC(=O)N1CCN(c2cc(O[C@@H](C)[C@@H]3CCCN3C)nc(-c3cc([C@@]4(C)CCCc5sc(N)c(C#N)c54)no3)n2)CC12CC2 [Ic-3] | 3 | 0.109 | 10.6 | 0.028 | 
C=CC(=O)N1[C@@H](C)CN(c2cc(O[C@@H](C)[C@@H]3CCCN3C)nc(-c3cc([C@@]4(C)CCCc5sc(N)c(C#N)c54)no3)n2)C[C@@H]1C [Ic-4] | 1.9 | 0.083 | 1.62 | 0.027 | 0.011
C=CC(=O)N1[C@H](C)CN(c2cc(O[C@@H](C)[C@@H]3CCCN3C)nc(-c3cc([C@@]4(C)CCCc5sc(N)c(C#N)c54)no3)n2)C[C@@H]1C [Ic-5] | 5 | 0.148 | 7.15 | 0.02 | 0.003
C=CC(=O)N1CCC(Oc2cc(N3CCN(C)C[C@@H]3C)nc(-c3cc(C4(C)CCCc5sc(N)c(C#N)c54)no3)n2)CC1 (stereo partly drawn) [Ic-7] | 44 | 0.252 | 44.7 | 0.02 | 0.001
C=C(F)C(=O)N1[C@@H](C)CN(c2cc(O[C@@H](C)[C@@H]3CCCN3C)nc(-c3cc([C@@]4(C)CCCc5sc(N)c(C#N)c54)no3)n2)C[C@@H]1C [Ic-8] | 41 | 0.078 | 36.6 |  | 0.003
COC/C=C/C(=O)N1CCN(c2cc(O[C@@H](C)[C@@H]3CCCN3C)nc(-c3cc(C4(C)CCCc5sc(N)c(C#N)c54)no3)n2)CC1 (stereo partly drawn) [Ic-9] | 29 | 0.259 | 124 | 0.043 | 0.008
C=CC(=O)N1[C@H](C)CN(c2cc(O[C@@H](C)[C@@H]3CCCN3C)nc(-c3cc([C@@]4(C)CCCc5sc(N)c(C#N)c54)sn3)n2)C[C@@H]1C [Id-2] | 1.6 | 0.434 | 1.09 | 0.009 | 0.003
C=CC(=O)N1[C@@H](C)CN(c2cc(O[C@@H](C)[C@@H]3CCCN3C)nc(-c3cc([C@@]4(C)CCCc5sc(N)c(C#N)c54)sn3)n2)C[C@@H]1C [Id-4] | 1.7 | 0.371 | 0.68 | 0.014 | 0.005
C=CC(=O)N1CCN(c2cc(O[C@@H](C)[C@@H]3CCCN3C)nc(-c3cc([C@@]4(C)CCCc5sc(N)c(C#N)c54)sn3)n2)CC12CC2 [Id-5] | 1.7 | 0.338 | 0.8 |  | 0.003
C=CC(=O)N1CCC(Oc2cc(O[C@@H](C)[C@@H]3CCCN3C)nc(-c3cc([C@@]4(C)CCCc5sc(N)c(C#N)c54)sn3)n2)CC1 [Id-6] | 1.6 | 0.521 | 0.35 |  | 0.003
